One block for each molecule: values may come before it.
How the values were obtained:
[1] = test system: retinoic acid response element (RARE) driven LacZ reporter in Sil-15 reporter cells (F9-RARE-lacZ cells); assay: RARE-driven LacZ reporter gene assay (genomic response, Sil-15 reporter cells, X-Gal assay); format: cell-based; settings: for activation of transcription via a RARE (genomic response): Sil-15 reporter cells, result in words
From the text: (§1) The action of retinoic acid in the brain, the relative importance of genomic versus non-genomic activity of retinoic acid was investigated by determining whether some RAR ligands preferentially activated one pathway. Retinoic acid (FIG. 1) was used as a compound known to induce both genomic and non-genomic pathways of retinoic acid signalling. We measured its relative activity as an inducer of gene transcription using a construct in which the promoter element to which the retinoic acid receptor binds (retinoic acid response element, RARE) drives a LacZ reporter (genomic response). This was compared to a cell based assay to measure induction of ERK 1/2 phosphorylation (non-genomic response).
Sil-15 reporter cells (also called F9-RARE-lacZ cells) were used in the X-Gal Assay. This cell line was derived from a stable transfection of F9 teratocarcinoma cells with a plasmid containing the LacZ gene under the control of a promoter linked to a retinoic acid response element (RARE). These cells were used to visually detect and semi-quantify the transcriptional activity of retinoic acid and other retinoids by monitoring β-galactosidase activity produced by the reporter cells in response to the retinoic acid/retinoids in the surrounding medium.
Sil-15 cells were plated in a 0.1% gelatin-coated 96-well plate and grown to about 85-90% confluence in Dulbecco's modified Eagle's medium (DMEM) containing 10% foetal calf serum and 0.8 mg/ml G418 sulfate for selection.
Serial dilutions of retinoids were prepared from the stock solutions under a red/orange light. A standard curve of RA was included in the experiment as a positive control. The RA/chemicals dilutions were added above the seeded Sil-15 cells in the 96-well plate and then the plate was wrapped with aluminium foil and incubated overnight in a humid atmosphere containing 5% CO2 at 37° C. All the concentrations for the RA and the two chemicals were tested in triplicates.
The next day, Sil-15 cells were washed twice with 1× PBS, fixed with 100 μl per well of 1% glutaraldehyde fixation solution for 15 minutes, washed again two times with 1× PBS and finally β-galactosidase activity was visualized by adding 100 μl of a freshly prepared X-Gal developing solution (5-bromo-4-chloro-3-indolyl-β-d-galactopyranoside) to each well. The plate was incubated overnight at 37° C. in 5% CO2. The plate was read on an Emax microplate reader at 650 nm.

ERK 1/2 phosphorylation = assay: Induction of ERK 1/2 phosphorylation (non-genomic response); format: cell-based; settings: for kinase activity (ERK 1/2 phosphorylation, non-genomic response): result in words
Description: (§2) (b) The influence of a low concentration of retinoids on number of neurites from SH-SS5Y cells was determined.
as §1

SH-SY5Y cells [2] = assay: Neurite outgrowth screening assay in SH-SY5Y cells; format: cell-based; settings: for effect on number of neurites compared to control: 10 nM retinoid, SH-SY5Y cells
Description: as §2

[3] = molecular target: T1, Cellular Retinoic Acid Binding Protein II (CRABPII) (Homo sapiens, UniProt P29373); assay: Fluorometric competitive binding titration of DC271 in CRABPII
T1 sequence (P29373 1-138): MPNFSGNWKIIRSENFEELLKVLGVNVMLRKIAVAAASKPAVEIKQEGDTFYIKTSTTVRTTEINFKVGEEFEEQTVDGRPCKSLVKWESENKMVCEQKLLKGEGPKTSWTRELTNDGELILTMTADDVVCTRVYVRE
From the text: A number of highly fluorescent analogues of retinoic acid (ATRA) have been synthesised at Durham University for use in a variety of imaging and biophysical studies. The fluorescence emission of these fluorescent retinoids, including DC271, is highly solvatochromatic and the intensity of this emission is strongly dependent on environment. Therefore, in a nonpolar solvent, the emission is blue shifted (425-500 nm) and intense, while in a polar solvent the emission is red shifted (500-600 nm) and weak (severely quenched in water). […] When EC23® is titrated against CRABPII-DC271 complex the reduction in fluorescence emission intensity can be used to produce a competition binding curve allowing the estimation of the Ki (inhibition constant) of the competition of EC23® for DC271 bound to CRABPII. […] For the competition with EC23® a solution of [DC271] =49.8 nM and [CRABPII]=75 nM was prepared in PBS buffer (20 mM K2HPO4, 100mM KCl, pH 7.4 buffer) and the fluorescence intensity was measured at 450 nm with excitation at 380 nm. […] The emission intensity of DC271 was plotted against Log[EC23], and a one site competitive binding model was fit to the resultant data (FIG. 5). This provided an estimation of the Log Ki of the competitive binding reaction (Table 1).

SH-SY5Y cells [4] = assay: Cell number / cell survival of SH-SY5Y cells; format: cell-based; settings: 10 nM, compared to same concentration of retinoic acid
Photostability = format: physicochemical
[5] = Induction of own catabolism in vivo; settings: unlike retinoic acid

SMILES: CC1=C(/C=C/C(C)=C/C=C/C(C)=C/C(=O)O)C(C)(C)CCC1 [ATRA, all-trans-retinoic acid]
EC50 ([1]; RARE-LacZ reporter, 95% confidence interval 90.7 pM to 391.4 pM, read-out: mean EC50, genomic activation): 0.188 nM
activation of transcription via a RARE (genomic response) [1]: induces gene transcription of a RAR driven reporter gene
EC50 (ERK 1/2 phosphorylation; 95% confidence interval 32.8 nM to 138.8 nM, read-out: mean EC50, ERK 1/2 kinase phosphorylation): 67.5 nM
effect on number of neurites compared to control (SH-SY5Y cells [2]): no significant effect
neurite outgrowth (SH-SY5Y cells [2]; SH-SY5Y cell line, preliminary results, result in words): promotes neurite outgrowth

SMILES: COCCOCOc1cc2ccc(-c3ccc(C(=O)O)cc3)cc2cc1C12CC3CC(CC(C3)C1)C2 [CD2665]
activation of transcription via a RARE (genomic response) [1]: shows no sign of activity to regulate gene expression via a RARE
kinase activity (ERK 1/2 phosphorylation, non-genomic response) (ERK 1/2 phosphorylation): has significant kinase activity

More lines, main results first:

Kd ([3]; direct binding of the fluorescent retinoid, read-out: dissociation constant against CRABPII, Kd): 49.1 ± 2.6 nM
SMILES: CC(C)N1CCC(C)(C)c2cc(C#Cc3ccc(C(=O)O)cc3)ccc21 [DC271]

Ki ([3]; competition with DC271 49.8 nM, CRABPII 75 nM, PBS pH 7.4, one site model): 3.16 nM
photostability (Photostability): photostable
SMILES: CC1(C)CCC(C)(C)c2cc(C#Cc3ccc(C(=O)O)cc3)ccc21 [EC23®, 4-(5,5,8,8-tetramethyl-5,6,7,8-tetrahydro-naphthalen-2-ylethynyl) benzoic acid]
fold greater activity than retinoic acid (ATRA) in transactivation of a RAR driven reporter gene ([1]; relative to retinoic acid (ATRA)): up to 500 fold
capacity to induce ERK phosphorylation (western blotting of phosphorylated ERK) (ERK 1/2 phosphorylation; 10 μM, after 20 minutes, versus same concentration of retinoic acid): much greater in its capacity to induce ERK phosphorylation than the same concentration of retinoic acid
effect on number of neurites compared to control (SH-SY5Y cells [2]): strong and significant effect
number of SH-SY5Y cells (SH-SY5Y cells [4]): greatly enhances the number of SH-SY5Y cells
induction of its own catabolism in vivo [5]: does not induce its own catabolism in vivo

kinase activity (ERK 1/2 phosphorylation, non-genomic response) (ERK 1/2 phosphorylation): does not activate kinase activity
SMILES: C/C(=C\c1ccc(C(=O)O)cc1)c1ccc2c(c1)C(C)(C)CCC2(C)C [TTNPB]
activation of transcription via a RARE (genomic response) [1]: can potently activate transcription via a RARE
